In patent US20190161499A1, “PESTICIDALLY ACTIVE 1,2,4-TRIAZOLE DERIVATIVES” (SYNGENTA PARTICIPATIONS AG, priority 2015, published 2019):
Where two headings read alike, the source gives them in different places.

How the values were obtained:
Assay type in all cases: in vivo
[1] = test system: Spodoptera littoralis (Egyptian Cotton Leaf Worm); assay: Spodoptera littoralis cotton leaf disc spray test; conditions: foliar, 72 h, application rate 200 ppm, L1 larvae, 3 days after infestation, read-out: control (at least one of mortality, anti-feedant effect, growth inhibition)
Method: Spodoptera littoralis (Egyptian Cotton Leaf Worm)
Cotton leaf discs were placed on agar in 24-well microtiter plates and sprayed with aqueous test solutions prepared from 10,000 ppm DMSO stock solutions. After drying, the leaf discs were infested with five L1 larvae. The samples were assessed for mortality, anti-feedant effect, and growth inhibition in comparison to untreated samples 3 days after infestation. Control of Spodoptera littoralis by a test sample is when at least one of mortality, anti-feedant effect, and growth inhibition is higher than the untreated sample.

[2] = test system: Plutella xylostella (Diamond Back Moth); assay: whole plant or invertebrate; conditions: 120 h, application rate 200 ppm, L2 larvae, 5 days after infestation, read-out: effect in at least one of the two categories (mortality or growth inhibition)
Method: Example B2: Plutella xylostella (Diamond Back Moth)
(§1) 24-well microtiter plates with artificial diet were treated with aqueous test solutions prepared from 10,000 ppm DMSO stock solutions by pipetting. After drying, the plates were infested with L2 larvae (10 to 15 per well). The samples were assessed for mortality and growth inhibition in comparison to untreated samples 5 days after infestation.

[3] = test system: Diabrotica Balteata (Corn Root Worm); assay: whole plant or invertebrate; conditions: 96 h, read-out: effect in at least one of the two categories (mortality or growth inhibition)
Method: Example B3: Diabrotica Balteata (Corn Root Worm)
as §1, with “Maize sprouts, placed on an agar layer in 24-well” for “24-well”, “plates” for “plates with artificial diet”, “spraying.” for “pipetting.”, “(6” for “(10”, “10” for “15”, “4” for “5”

[4] = application rate 200 ppm, L2 larvae, 4 days after infestation

| Structure (SMILES) | percent control (mortality, anti-feedant effect or growth inhibition) at 200 ppm [1] [%] | percent effect (mortality or growth inhibition) at 200 ppm [2] [%] | percent effect (mortality or growth inhibition) at 200 ppm [3, 4] [%] | percent effect (mortality or growth inhibition) at 200 ppm [3] [%] |
| --- | --- | --- | --- | --- |
| Fc1ccccc1-n1nc(-c2ccc(Cl)cc2)nc1CN1CCC(c2ncccn2)CC1 [Example 1.1, 2-[1-[[5-(4-chlorophenyl)-2-(2-fluorophenyl)-1,2,4-triazol-3-yl]methyl]-4-piperidyl]pyrimidine] | ≥ 80 | ≥ 80 | ≥ 80 |  |
| Fc1ccccc1-n1nc(-c2ccc(Cl)cn2)nc1CN1CCC(c2ncccn2)CC1 [Example 1.4] | ≥ 80 | ≥ 80 | ≥ 80 |  |
| Fc1ccccc1-n1nc(-c2ccc(Cl)cc2)nc1CN1CCC(C(F)(F)F)CC1 [Example 1.5] |  |  | ≥ 80 |  |
| Cc1ccccc1-c1nc(CN2CCC(c3ncccn3)CC2)n(-c2ccccc2F)n1 [Example 1.36] |  |  | ≥ 80 |  |
| Cc1cccc(-c2nc(CN3CCC(c4ncccn4)CC3)n(-c3ccccc3F)n2)c1 [Example 1.37] | ≥ 80 |  | ≥ 80 |  |
| NC(=O)C1CCN(Cc2nc(-c3ccc(Cl)cc3)nn2-c2ccccc2F)CC1 [Example 1.47] | ≥ 80 |  | ≥ 80 |  |
| Clc1ccc(-c2nc(CN3CCC(c4ncccn4)CC3)n(-c3ccc(Cl)c(Cl)c3)n2)cc1 [Example 1.50] |  |  | ≥ 80 |  |
| Cc1cccc(-n2nc(-c3ccc(Cl)cc3)nc2CN2CCC(c3ncccn3)CC2)c1 [Example 1.51] |  |  | ≥ 80 |  |
| Cc1ccc(-n2nc(-c3ccc(Cl)cc3)nc2CN2CCC(c3ncccn3)CC2)cc1 [Example 1.52] | ≥ 80 |  | ≥ 80 |  |
| Clc1ccc(-c2nc(CN3CCC(c4ncccn4)CC3)n(-c3cccc(Br)c3)n2)cc1 [Example 1.57] |  |  | ≥ 80 |  |
| Clc1ccc(-c2nc(CN3CCC(c4ncccn4)CC3)n(C3CCC3)n2)cc1 [Example 1.58] |  |  | ≥ 80 |  |
| CC(C)n1nc(-c2ccc(Cl)cc2)nc1CN1CCC(c2ncccn2)CC1 [Example 1.60] |  |  | ≥ 80 |  |
| Clc1ccc(-c2nc(CN3CCC(c4ncccn4)CC3)n(-c3ccc(Cl)cc3Cl)n2)cc1 [Example 1.65] | ≥ 80 |  | ≥ 80 |  |
| Clc1ccc(-c2nc(CN3CCC(c4ncccn4)CC3)n(-c3cccc(Cl)c3)n2)cc1 [Example 1.69] |  |  | ≥ 80 |  |
| Cc1ccc(-n2nc(-c3ccc(Cl)cc3)nc2CN2CCC(c3ncccn3)CC2)cc1C [Example 1.73] |  |  | ≥ 80 |  |
| Cc1ccc(C)c(-n2nc(-c3ccc(Cl)cc3)nc2CN2CCC(c3ncccn3)CC2)c1 [Example 1.74] |  |  | ≥ 80 |  |
| COc1cccc(-n2nc(-c3ccc(Cl)cc3)nc2CN2CCC(c3ncccn3)CC2)c1 [Example 1.75] |  |  | ≥ 80 |  |
| COc1ccc(-n2nc(-c3ccc(Cl)cc3)nc2CN2CCC(c3ncccn3)CC2)cc1 [Example 1.79] | ≥ 80 |  | ≥ 80 |  |
| Cc1cccc(-n2nc(-c3ccc(Cl)cc3)nc2CN2CCC(c3ncccn3)CC2)c1C [Example 1.82] | ≥ 80 |  | ≥ 80 |  |
| Clc1ccc(-c2nc(CN3CCC(c4ncccn4)CC3)n(-c3cc(Cl)ccc3Cl)n2)cc1 [Example 1.86] |  |  | ≥ 80 |  |
| Cc1ccc(-n2nc(-c3ccc(Cl)cc3)nc2CN2CCC(c3ncccn3)CC2)c(C)c1 [Example 1.87] | ≥ 80 |  | ≥ 80 |  |
| Fc1ccccc1-n1nc(Cc2ccc(Cl)cc2)nc1CN1CCC(c2ncccn2)CC1 [Example 1.91] | ≥ 80 |  | ≥ 80 |  |
| Cc1ccc(-c2nc(CN3CCC(c4ncccn4)CC3)n(-c3ccccc3F)n2)cc1F [Example 1.92] | ≥ 80 |  | ≥ 80 |  |
| Fc1ccccc1-n1nc(C2CC2)nc1CN1CCC(c2ncccn2)CC1 [Example 1.93] |  |  | ≥ 80 |  |
| Fc1ccccc1-n1nc(-c2ccccc2)nc1CN1CCC(c2ncccn2)CC1 [Example 1.94] | ≥ 80 |  | ≥ 80 |  |

| Structure (SMILES) | percent control (mortality, anti-feedant effect or growth inhibition) at 200 ppm [1] [%] | percent effect (mortality or growth inhibition) at 200 ppm [2] [%] | percent effect (mortality or growth inhibition) at 200 ppm [3, 4] [%] | percent effect (mortality or growth inhibition) at 200 ppm [3] [%] |
| --- | --- | --- | --- | --- |
| Cc1ccc(-c2nc(CN3CCC(c4ncccn4)CC3)n(-c3ccccc3F)n2)cc1 [Example 1.95] | ≥ 80 |  | ≥ 80 |  |
| Fc1ccccc1-n1nc(-c2cccs2)nc1CN1CCC(c2ncccn2)CC1 [Example 1.96] |  |  | ≥ 80 |  |
| CCc1nc(CN2CCC(c3ncccn3)CC2)n(-c2ccccc2F)n1 [Example 1.99] |  |  | ≥ 80 |  |
| CC(C)c1nc(CN2CCC(c3ncccn3)CC2)n(-c2ccccc2F)n1 [Example 1.100] |  |  | ≥ 80 |  |
| COc1ccc(-c2nc(CN3CCC(c4ncccn4)CC3)n(-c3ccccc3F)n2)cc1 [Example 1.101] | ≥ 80 |  | ≥ 80 |  |
| Fc1ccccc1-n1nc(-c2ccccn2)nc1CN1CCC(c2ncccn2)CC1 [Example 1.102] |  |  | ≥ 80 |  |
| Fc1ccccc1-n1nc(-c2ccc(Cl)cc2)nc1CN1CCC(c2ncc[nH]2)CC1 [Example 1.112] |  |  | ≥ 80 |  |
| Fc1ccccc1-n1nc(-c2ccc(Cl)cc2)nc1CN1CCC(c2ncon2)CC1 [Example 1.113] | ≥ 80 |  | ≥ 80 |  |
| Fc1ccccc1-n1nc(-c2ccc(Cl)cc2)nc1CN1CCC(c2nccs2)CC1 [Example 1.115] | ≥ 80 |  | ≥ 80 |  |
| Fc1ccccc1-n1nc(-c2ccc(Cl)cc2)nc1CN1CCC(c2ccncn2)CC1 [Example 1.116] | ≥ 80 |  | ≥ 80 |  |
| Cn1ccnc1C1CCN(Cc2nc(-c3ccc(Cl)cc3)nn2-c2ccccc2F)CC1 [Example 1.117] | ≥ 80 |  | ≥ 80 |  |
| Cc1nnc(C2CCN(Cc3nc(-c4ccc(Cl)cc4)nn3-c3ccccc3F)CC2)o1 [Example 1.118] |  |  | ≥ 80 |  |
| Fc1ccccc1-n1nc(-c2ccc(Cl)cc2)nc1CN1CCC(c2cscn2)CC1 [Example 1.119] | ≥ 80 |  | ≥ 80 |  |
| Fc1ccccc1-n1nc(-c2ccc(Cl)cc2)nc1CN1CCC(c2ncno2)CC1 [Example 1.121] |  |  | ≥ 80 |  |
| Cc1ccnc(C2CCN(Cc3nc(-c4ccc(Cl)cc4)nn3-c3ccccc3F)CC2)n1 [Example 1.125] | ≥ 80 |  | ≥ 80 |  |
| Fc1ccccc1-n1nc(-c2ccc(Cl)cc2)nc1CN1CC=C(c2ccc(Cl)cn2)CC1 [Example 3.1] |  |  |  | ≥ 80 |
| Fc1ccccc1-n1nc(-c2ccc(Cl)cc2)nc1CN1CCC(c2cc(Cl)cc(Cl)c2)(C(F)(F)F)C1 (stereo not drawn) [Example 5.2] |  | ≥ 80 |  |  |
| Fc1ccccc1-n1nc(-c2ccc(Cl)cc2)nc1CN1CCC2(CC1)CC(C1CC1)=NO2 [Example 5.4] | ≥ 80 |  | ≥ 80 |  |
| Fc1ccccc1-n1nc(-c2ccc(Cl)cc2)nc1CN1CCC2(CC1)CC(C(F)(F)F)=NO2 [Example 5.5] | ≥ 80 |  | ≥ 80 |  |
| Fc1ccccc1-n1nc(-c2ccc(Cl)cc2)nc1CN1CCC(c2ncccn2)C1 (stereo not drawn) [Example 5.7] |  | ≥ 80 | ≥ 80 |  |
| CCC1CCCCN1Cc1nc(-c2ccc(Cl)cc2)nn1-c1ccccc1F (stereo not drawn) [Example 5.16] |  |  | ≥ 80 |  |
| CCOC(=O)C1CCCN(Cc2nc(-c3ccc(Cl)cc3)nn2-c2ccccc2F)C1 (stereo not drawn) [Example 5.17] |  |  | ≥ 80 |  |
| CCC1CCCN(Cc2nc(-c3ccc(Cl)cc3)nn2-c2ccccc2F)C1 (stereo not drawn) [Example 5.21] |  |  | ≥ 80 |  |
| CCOC(=O)C1CCCCN1Cc1nc(-c2ccc(Cl)cc2)nn1-c1ccccc1F (stereo not drawn) [Example 5.22] |  |  | ≥ 80 |  |
| CC1CCCN1Cc1nc(-c2ccc(Cl)cc2)nn1-c1ccccc1F (stereo not drawn) [Example 5.30] |  |  | ≥ 80 |  |
